Test results reported in PubChem BioAssay (NCI).
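Test compounds were applied to cells in 96-well plates for 48 hours at 5 doses. At the TGI there is no net growth.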

What was measured:
Test in all cases: NCI tumour cell line growth inhibition, 48 h
M19-MEL melanoma = system: M19-MEL melanoma
SNB-78 CNS = system: SNB-78 CNS
KM20L2 colon = system: KM20L2 colon
DMS 273 small cell lung = system: DMS 273 small cell lung
P388/ADR leukemia = system: P388/ADR leukemia
DLD-1 colon = system: DLD-1 colon
P388 leukemia = system: P388 leukemia
SN12K1 renal = system: SN12K1 renal
DMS 114 small cell lung = system: DMS 114 small cell lung

## CCC1=CC2CN3CCc4c([nH]c5ccccc45)C(C(=O)OC)(C2)C13 (centres undefined)
M19-MEL melanoma
  TGI: 85.8 µM
SNB-78 CNS
  TGI: 167 µM
KM20L2 colon
  TGI: 19.3 µM
DMS 273 small cell lung
  TGI: 91 µM
P388/ADR leukemia
  TGI: 131 µM
DLD-1 colon
  TGI: 87.5 µM
P388 leukemia
  TGI: 93.1 µM
SN12K1 renal
  TGI: 39.6 µM
DMS 114 small cell lung
  TGI: 85.1 µM
